Reference: patent US20250003877A1, “Silyl Bridged Dyes” (priority 2021, published 2025)
Like-named read-outs stand apart in the source and are kept apart here.

Conditions: for ϕ (quantum yield): pH 7.4
[1] = spirolactone dyes, table title says PBS, text (b560-b564) says maximal ε when ring-opened in EtOH/0.1% TFA
[2] = spirolactone dyes, ϕ in PBS × ε in EtOH/0.1% TFA

| Structure (SMILES) | Brightness (ϕ × ε) (PBS) | Em (nm) (PBS) | Ex (nm) (PBS) | ε (M^−1 cm^−1) (PBS) | ϕ (quantum yield) (PBS) | ε (M^−1 cm^−1) [1] | further results |
| --- | --- | --- | --- | --- | --- | --- | --- |
| Cc1ccccc1C1=C2C=CC(=[N+]3CCC3)C=C2[Si](C)(C)c2cc(N3CCC3)ccc21 [Compound 024, 1-(7-(Azetidin-l-yl)-5,5-dimethyl-10-(o-tolyl)dibenzo[b,e]silin-3(5H)-ylidene)azetidin-1-ium, reference compound] | 55,460 | 663 | 649 | 118,000 M^−1 cm^−1 | 0.47 | – | – |
| Cc1ccccc1C1=C2C=CC(=[N+]3CCC3)C=C2[Si](c2ccccc2)(c2ccccc2)c2cc(N3CCC3)ccc21 [Compound 025, 1-(7-(Azetidin-1-yl)-5,5-diphenyl-10-(o-tolyl)dibenzo[b,e]silin-3(5H)-ylidene)azetidin-1-ium] | 63,222 | 680 | 663 | 154,200 M^−1 cm^−1 | 0.41 | – | – |
| C=C[Si]1(C=C)C2=CC(=[N+]3CCC3)C=CC2=C(c2ccccc2C)c2ccc(N3CCC3)cc21 [Compound 026, 1-(7-(Azetidin-1-yl)-10-(o-tolyl)-5,5-divinyldibenzo[b,e]silin-3(5H)-ylidene)azetidin-1-ium] | 48,268 | 673 | 658 | 109,700 M^−1 cm^−1 | 0.44 | – | – |
| Cc1ccccc1C1=C2C=CC(=[N+]3CCC3)C=C2[Si](C)(CCCCl)c2cc(N3CCC3)ccc21 (stereo not shown) [Compound 027, 1-(7-(Azetidin-1-yl)-5-(3-chloropropyl)-5-methyl-10-(o-tolyl)dibenzo[b,e]silin-3(5H)-ylidene)azetidin-1-ium] | 81,683 | 668 | 651 | 166,700 M^−1 cm^−1 | 0.49 | – | quantum yield (EtOH/0.1% TFA, mix of two isomers): 0.61; extinction coefficient (measured in PBS, mix of two isomers): ~4,000; emission (mix of two isomers): 670 nm; excitation wavelength (mix of two isomers): 653 nm |
| COc1cccc(OC)c1C1=C2C=CC(=[N+]3CCC3)C=C2[Si](C)(CCCCl)c2cc(N3CCC3)ccc21 (stereo not shown) [Compound 029, 1-(7-(Azetidin-1-yl)-5-(3-chloropropyl)-10-(2,6-dimethoxyphenyl)-5-methyldibenzo[b,e]silin-3(5H)-ylidene)azetidin-1-ium] | 86,400 | 670 | 653 | 180,000 M^−1 cm^−1 | 0.48 | – | – |
| COc1cccc(OC)c1C1=C2C=CC(=[N+](C)C)C=C2[Si](C)(CCCCl)c2cc(N(C)C)ccc21 (stereo not shown) [Compound 030, N-(5-(3-Chloropropyl)-10-(2,6-dimethoxyphenyl)-7-(dimethylamino)-5-methyldibenzo[b,e]silin-3(5H)-ylidene)-N-methylmethanaminium] | 76,000 | 673 | 655 | 200,000 M^−1 cm^−1 | 0.38 | – | – |
| O=C1OC2(c3ccccc31)c1ccc(N3CCC3)cc1[Si](c1ccccc1)(c1ccccc1)c1cc(N3CCC3)ccc12 [Compound 033, 3,7-Di(azetidin-1-yl)-5,5-diphenyl-3′H,5H-spiro[dibenzo[b,e]siline-10,1′-isobenzofuran]-3′-one] | – | – | – | – | – | 80,000 M^−1 cm^−1 | extinction coefficient (maximum) in EtOH/0.1% TFA (EtOH/0.1% TFA): 80,000 M−1 cm−1; Em (nm) (SDS): 681 nm; Ex (nm) (SDS): 664 nm; extinction coefficient in anhydrous EtOH/0.1% TFA (anhydrous EtOH/0.1% TFA): ~124 000 M−1 cm-1 |
| C[Si@]1(CCCCl)c2cc(N3CCC3)ccc2[C@@]2(OC(=O)c3ccccc32)c2ccc(N3CCC3)cc21 [Compound 035, (5s,10s)-3,7-Di(azetidin-1-yl)-5-(3-chloropropyl)-5-methyl-3′H,5H-spiro[dibenzo[b,e]siline-10,1′-isobenzofuran]-3′-one] | – | 666 | 648 | – | – | 183,000 M^−1 cm^−1 | – |
| C[Si@]1(CCCCl)c2cc(N3CCC3)ccc2[C@]2(OC(=O)c3ccccc32)c2ccc(N3CCC3)cc21 [Compound 036, (5r,10r)-3,7-Di(azetidin-1-yl)-5-(3-chloropropyl)-5-methyl-3′H,5H-spiro[dibenzo[b,e]siline-10,1′-isobenzofuran]-3′-one] | – | 666 | 648 | – | 0.53 | 213,200 M^−1 cm^−1 | – |
| CN(C)c1ccc2c(c1)[Si@](C)(CCCCl)c1cc(N(C)C)ccc1[C@]21OC(=O)c2ccccc21 [Compound 037, (5s,10s)-5-(3-Chloropropyl)-3,7-bis(dimethylamino)-5-methyl-3′H,5H-spiro[dibenzo[b,e]siline-10,1′-isobenzofuran]-3′-one] | – | 665 | 650 | – | 0.40 | 200,000 M^−1 cm^−1 | extinction coefficient (maximum) in EtOH/0.1% TFA (EtOH/0.1% TFA): ~200,000 M−1 cm−1; Brightness (ϕ × ε) [2]: 80,000; overall brightness (ϕ in PBS × ε in EtOH/0.1% TFA): ~80,000 M−1 cm−1 |
| CN(C)c1ccc2c(c1)[Si@](C)(CCCCl)c1cc(N(C)C)ccc1[C@@]21OC(=O)c2ccccc21 [Compound 038, (5r,10r)-5-(3-Chloropropyl)-3,7-bis(dimethylamino)-5-methyl-3′H,5H-spiro[dibenzo[b,e]siline-10,1′-isobenzofuran]-3′-one] | – | 665 | 650 | – | 0.40 | 200,000 M^−1 cm^−1 | extinction coefficient (maximum) in EtOH/0.1% TFA (EtOH/0.1% TFA): ~200,000 M−1 cm−1; Brightness (ϕ × ε) [2]: 80,000; overall brightness (ϕ in PBS × ε in EtOH/0.1% TFA): ~80,000 M−1 cm−1 |
| CCOC(=O)CSCCC[Si@]1(C)c2cc(N(C)C)ccc2[C@]2(OC(=O)c3ccccc32)c2ccc(N(C)C)cc21 [Compound 042, Ethyl 2-((3-((5s,10s)-3,7-bis(dimethylamino)-5-methyl-3′-oxo-3′H,5H-spiro[dibenzo[b,e]siline-10,1′-isobenzofuran]-5-yl)propyl)thio)acetate] | – | 665 | 645 | – | 0.45 | 145,800 M^−1 cm^−1 | – |
| CCOC(=O)CSCCC[Si@]1(C)c2cc(N(C)C)ccc2[C@@]2(OC(=O)c3ccccc32)c2ccc(N(C)C)cc21 [Compound 043, Ethyl 2-((3-((5r,10r)-3,7-bis(dimethylamino)-5-methyl-3′-oxo-3′H,5H-spiro[dibenzo[b,e]siline-10,1′-isobenzofuran]-5-yl)propyl)thio)acetate] | – | 665 | 646 | – | 0.45 | 150,700 M^−1 cm^−1 | – |
| CN(C)c1ccc2c(c1)[Si@](C)(CCCI)c1cc(N(C)C)ccc1[C@]21OC(=O)c2ccccc21 [Compound 047, (5s,10s)-3,7-Bis(dimethylamino)-5-(3-iodopropyl)-5-methyl-3′H,5H-spiro[dibenzo[b,e]siline-10,1′-isobenzofuran]-3′-one] | – | 665 | 645 | – | 0.43 | 115,000 M^−1 cm^−1 | – |
| CN(C)c1ccc2c(c1)[Si@](C)(CCCI)c1cc(N(C)C)ccc1[C@@]21OC(=O)c2ccccc21 [Compound 048, (5r,10r)-3,7-Bis(dimethylamino)-5-(3-iodopropyl)-5-methyl-3′H,5H-spiro[dibenzo[b,e]siline-10,1′-isobenzofuran]-3′-one] | – | 665 | 645 | – | 0.45 | 144,000 M^−1 cm^−1 | – |
| CN(C)c1ccc2c(c1)[Si@](C)(CCCN=[N+]=[N-])c1cc(N(C)C)ccc1[C@]21OC(=O)c2ccccc21 [Compound 053, (5s,10s)-5-(3-Azidopropyl)-3,7-bis(dimethylamino)-5-methyl-3′H,5H-spiro[dibenzo[b,e]siline-10,1′-isobenzofuran]-3′-one] | – | 666 | 645 | – | 0.43 | 206,700 M^−1 cm^−1 | – |
| CN(C)c1ccc2c(c1)[Si@](C)(CCCN=[N+]=[N-])c1cc(N(C)C)ccc1[C@@]21OC(=O)c2ccccc21 [Compound 054, (5r,10r)-5-(3-Azidopropyl)-3,7-bis(dimethylamino)-5-methyl-3′H,5H-spiro[dibenzo[b,e]siline-10,1′-isobenzofuran]-3′-one] | – | 665 | 645 | – | 0.44 | 218,400 M^−1 cm^−1 | – |
| CN(C)c1ccc2c(c1)[Si@](C)(CCCSCC(=O)O)c1cc(N(C)C)ccc1[C@]21OC(=O)c2ccccc21 [Compound 063, 2-((3-((5s,10s)-3,7-Bis(dimethylamino)-5-methyl-3′-oxo-3′H,5H-spiro[dibenzo[b,e]siline-10,1′-isobenzofuran]-5-yl)propyl)thio)acetic acid] | – | 665 | 645 | – | 0.45 | 180,600 M^−1 cm^−1 | – |
